IC50 data for nine molecules are collected here from US12686689B2, “HPK1 inhibitor, preparation method therefor and use thereof” (WIGEN BIOMEDICINE TECHNOLOGY (SHANGHAI) CO., LTD., priority 2020, dated 2026).

Experiment [1] concerns the target T1, hERG potassium channel (Homo sapiens, UniProt Q12809).
T1 construct: expressed in transfected cells; host or cells: HEK293
The experiment is described as follows: Inhibitory effect against hERG channel activity (manual patch clamp, HEK293 cells stably expressing hERG). The format is cell-based. Particulars: HEK293 cell line stably expressing hERG. The protocol:
Example 131: Assay of Inhibitory Effect of Compound Against hERG Channel Activity
The HEK293 cell line stably expressed by the hERG potassium channel was adopted for detection using manual patch clamp. Firstly, the HEK293 cell line stably expressed by the hERG potassium channel was separated and laid on a cover glass before the patch clamp detection test, and the test detection was carried out after culture for 18 h. Then a capillary glass tube was drawn into a recording electrode, and the recording electrode was contacted onto the cells under an inverted microscope to form a whole-cell recording mode. After necessary compensation and recording of the membrane capacitance and series resistance, current recording was performed according to the set current stimulation protocol. After the hERG current stabilized, administration was started and the current detected in compound-free extracellular fluid for each cell served as its own control group, and multiple cells were repeatedly tested independently. The current acted for each drug concentration and the current of the blank control were standardized, then the inhibition rate corresponding to each drug concentration was calculated, and finally the half-inhibition concentration IC50 value of each compound was calculated.
(In general: The hERG channel carries a current that helps repolarise heart muscle cells.)

For experiment [2], the target named is HPK1 (Homo sapiens, UniProt Q92918). The experiment is described as follows: Inhibitory effect against enzyme activity of HPK1 (lantha Screen, PKC substrate). It counts as biochemical. The note with it: class symbols defined as IC50 ranges, read-out: Inhibition rate (%). The protocol:
Example 130: Assay of Inhibitory Effect of Compound Against Enzyme Activity of HPK1
The inhibitory effect of the compound against the enzyme activity of HPK1 was determined by using a lantha Screen method with PKC as a substrate. The process comprises the following specific steps: the HPK1 protein was incubated with the serially-diluted compound at 28° C. for 10 min followed by addition of fluoroescein-labeled PKC substrate and ATP to react for 90 min. After termination of the reaction, a Terbium-labeled antibody against phosphorylated PKC was added and incubated for 60 min. The energy transfer of Teribium and fluoroscein was monitored by detecting luminescence at 520 nm and 450 nm to quantify PKC as the level of phosphorylation of […]. Inhibition % and IC50 of the compound were calculated compared to the control group.

Sequence of HPK1 (Q92918 whole entry): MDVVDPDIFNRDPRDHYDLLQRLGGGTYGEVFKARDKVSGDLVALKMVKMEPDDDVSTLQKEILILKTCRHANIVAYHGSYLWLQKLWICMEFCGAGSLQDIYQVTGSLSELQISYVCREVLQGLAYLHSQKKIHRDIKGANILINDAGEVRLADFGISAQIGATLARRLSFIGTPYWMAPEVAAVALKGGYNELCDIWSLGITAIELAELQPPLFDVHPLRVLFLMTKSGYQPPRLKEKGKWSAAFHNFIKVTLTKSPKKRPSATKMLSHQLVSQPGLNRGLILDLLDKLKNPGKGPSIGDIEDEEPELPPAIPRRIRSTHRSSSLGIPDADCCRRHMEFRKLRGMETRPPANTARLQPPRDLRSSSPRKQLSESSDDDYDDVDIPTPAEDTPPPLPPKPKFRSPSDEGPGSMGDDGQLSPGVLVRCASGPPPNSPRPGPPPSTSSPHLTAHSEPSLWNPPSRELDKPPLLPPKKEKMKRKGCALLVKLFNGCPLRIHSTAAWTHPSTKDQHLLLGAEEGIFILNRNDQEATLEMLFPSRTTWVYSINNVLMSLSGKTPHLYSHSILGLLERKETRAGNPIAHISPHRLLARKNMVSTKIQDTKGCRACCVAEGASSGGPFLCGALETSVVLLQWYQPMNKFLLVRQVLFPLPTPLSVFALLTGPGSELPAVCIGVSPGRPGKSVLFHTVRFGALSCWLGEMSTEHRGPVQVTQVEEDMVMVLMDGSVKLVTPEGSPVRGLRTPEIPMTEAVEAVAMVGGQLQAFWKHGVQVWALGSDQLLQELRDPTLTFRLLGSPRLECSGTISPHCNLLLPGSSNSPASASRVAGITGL
T1 sequence (Q12809 whole entry): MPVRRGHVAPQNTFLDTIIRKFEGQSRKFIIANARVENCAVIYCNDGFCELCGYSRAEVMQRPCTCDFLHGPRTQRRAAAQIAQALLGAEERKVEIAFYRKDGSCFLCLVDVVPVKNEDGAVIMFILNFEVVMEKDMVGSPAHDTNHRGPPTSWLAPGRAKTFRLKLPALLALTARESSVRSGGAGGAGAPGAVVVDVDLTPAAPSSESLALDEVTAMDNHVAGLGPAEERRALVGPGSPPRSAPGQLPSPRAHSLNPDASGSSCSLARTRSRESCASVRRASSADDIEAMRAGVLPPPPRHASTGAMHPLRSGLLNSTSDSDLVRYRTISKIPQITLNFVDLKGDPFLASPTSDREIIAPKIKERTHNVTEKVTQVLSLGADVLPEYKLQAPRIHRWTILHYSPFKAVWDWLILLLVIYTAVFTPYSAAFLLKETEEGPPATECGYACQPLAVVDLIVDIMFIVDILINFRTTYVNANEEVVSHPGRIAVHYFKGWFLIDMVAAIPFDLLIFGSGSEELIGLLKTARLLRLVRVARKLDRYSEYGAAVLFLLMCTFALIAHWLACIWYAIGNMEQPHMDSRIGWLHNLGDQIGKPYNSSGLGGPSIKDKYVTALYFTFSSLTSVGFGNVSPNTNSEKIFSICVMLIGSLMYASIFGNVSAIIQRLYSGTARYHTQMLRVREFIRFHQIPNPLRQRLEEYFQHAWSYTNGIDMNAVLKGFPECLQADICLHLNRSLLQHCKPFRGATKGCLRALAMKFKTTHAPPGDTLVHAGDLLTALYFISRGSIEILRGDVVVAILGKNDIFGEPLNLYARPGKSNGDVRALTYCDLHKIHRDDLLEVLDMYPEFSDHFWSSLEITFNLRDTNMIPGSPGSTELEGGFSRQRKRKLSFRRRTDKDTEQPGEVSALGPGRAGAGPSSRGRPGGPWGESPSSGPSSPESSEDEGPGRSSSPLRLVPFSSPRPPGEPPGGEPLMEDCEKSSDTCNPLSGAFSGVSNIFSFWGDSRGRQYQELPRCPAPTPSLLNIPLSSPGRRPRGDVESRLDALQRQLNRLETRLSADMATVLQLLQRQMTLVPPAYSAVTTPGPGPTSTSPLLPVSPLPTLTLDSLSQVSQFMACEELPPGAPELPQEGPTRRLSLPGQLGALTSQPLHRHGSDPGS

On to `CN1CCN2c3ccc(-c4n[nH]c5cc(C#N)c(-c6c(F)cc(C(=O)N7CC(N(C)C)C7)cc6F)cc45)cc3OCC2C1` (centres unmarked) [Compound 35], for which the IC50 is 31.8 µM in experiment [1] and at most 0.01 µM in experiment [2].
With `COc1cccc(F)c1-c1cc2c(-c3ccc4c(c3)OCC3CN(C)CCN43)n[nH]c2cc1C#N` (centres unmarked) [Compound 6], the IC50 is 17.8 µM in experiment [1] and at most 0.01 µM in experiment [2].
On to `Cc1ccncc1-c1cc2c(-c3ccc4c(c3)OCC3CN(C)CCN43)n[nH]c2cc1C#N` (centres unmarked) [Compound 43], for which the IC50 was 17.4 µM in experiment [1] and at most 0.01 µM in experiment [2].
For `CN1CCN2c3ccc(-c4n[nH]c5cnc(-c6cccc(F)c6F)cc45)cc3OCC2C1` (centres unmarked) [Compound 67], the IC50 is 51.2 µM in experiment [1] and 0.01 to 0.1 µM in experiment [2].
With `CNCc1cc(F)c(-c2cc3c(-c4ccc5c(c4)OCC4CN(C)CCN54)n[nH]c3cc2C#N)c(F)c1` (centres unmarked) [Compound 18], the IC50 in experiment [1] was 11.8 µM; in experiment [2], at most 0.01 µM.
`COc1ccc(F)c(F)c1-c1cc2c(-c3ccc4c(c3)OCC3CN(C)CCN43)n[nH]c2cc1C#N` (centres unmarked) [Compound 16]: the IC50 in experiment [1] was 23.6 µM; in experiment [2], at most 0.01 µM.
For `COc1ccc(F)c(F)c1-c1cc2c(-c3ccc4c(c3)OCC3CN(C)CCN43)n[nH]c2cn1` (centres unmarked) [Compound 73], in that order: 41.2 µM and 0.01 to 0.1 µM.
Consider `CN1CCN2c3ccc(-c4cnc5[nH]cc(-c6ccc(C(=O)N7CC(N(C)C)C7)cc6)c5n4)cc3OCC2C1` (centres unmarked) [Compound 112], for which the values for the IC50 in experiment [1] and in experiment [2] were 35.6 µM and at most 0.01 µM, respectively.
Regarding `CNCc1cc(C)c(-c2nc3c(-c4ccc5c(c4)OCC4CN(C)CCN54)c[nH]c3cc2C#N)c(F)c1` (centres unmarked) [Compound 98], the IC50 in experiment [2] is at most 0.01 µM.
